The values below are quoted from earlier work in US7585955B2, “Protein separation from a protein mixture” (Florida State University Research Foundation, Inc, priority 2005, dated 2009).

Conditions in one data set: not given
For the compound `Cc1ccc2ccccc2n1` [2-methylquinoline], the pKa result was “about 5.80”.
In the case of `O=C(O)CCCl` [3-chloropropanoic acid], the pKa result was “about 3.98”.
Turning to `Nc1ccc(N=Nc2ccccc2)cc1` [4-aminoazobenzene], the pKa result is listed as “about 2.82”.
For the compound `Cc1ccnc2ccccc12` [4-methylquinoline], the pKa result is listed as “about 5.70”.
Consider `Cc1cccc2ncccc12` [5-methylquinoline], for which the pKa entry is given as “about 5.20”.
Turning to `Clc1cnc2ncncc2n1` [6-chloropteridine], the pKa result was “about 3.70”.
Take `CN(C)CC(=O)O` [N,N-dimethylglycine]: the pKa result is “about 9.90”.
`CC(=O)NCC(=O)O` [N-acetylglycine]: the pKa result was “about 3.70”.
In the case of `CCNc1ccccc1` [N-ethylaniline], the pKa result was “about 5.10”.
Take `CC(=O)CC(=O)O` [acetoacetic acid]: the pKa entry is “about 3.60”.
On to `c1ccc2nc3ccccc3cc2c1` [acridine], for which the pKa entry is given as “about 5.60”.
Consider `O=C(O)c1cncc(C(=O)O)c1` [dinicotinic acid], for which the pKa entry is reported as “about 2.80”.
For `N=C(N)NCC(=O)O` [glycocyamine], the pKa entry is listed as “about 2.80”.
Turning to `c1ccc2cnccc2c1` [isoquinoline], the pKa entry is “about 5.40”.
Consider `CC(O)C(=O)O` (centres unmarked) [lactic acid], for which the pKa entry is recorded as “about 3.80”.
In the case of `Nc1nccs1` [thiazolamine], the pKa entry was “about 5.30”.
In the case of `CN(C)C` [trimethylamine], the pKa result is recorded as “about 9.80”.
On to `O=c1[nH]c(=O)c2[nH]c(=O)[nH]c2[nH]1` [uric acid], for which the pKa result is “about 3.90”.
Consider chloroaniline, for which the pKa result is “about 2.80”.

The data set is the same for the next values; noted with them: polyprotic buffer component.
For `CC(N)CN` (centres unmarked) [1,2-propanediamine], the pKa1 entry was “about 9.80” and the pKa2 entry was “about 6.60”.
Regarding `Oc1ccc2ccncc2c1` [7-isoquinolinol], the pKa1 entry is recorded as “about 8.90” and the pKa2 entry is reported as “about 5.70”.
Take `O=C(O)CCCCCC(=O)O` [heptanedioic acid]: the pKa1 result is “about 5.60” and the pKa2 entry is listed as “about 4.70”.
`NCCc1c[nH]cn1` [histamine]: the pKa1 result is on record as “about 9.80” and the pKa2 entry is “about 6.00”.
Take `NC[C@H](O)c1ccc(O)c(O)c1` [noradrenaline]: the pKa1 entry was “about 9.70” and the pKa2 entry is “about 8.60”.
